Experimental findings from patent US6689806B1, “Indolinone compounds as kinase inhibitors” (Sugen, Inc., priority 1999, dated 2004) are described below.

In general, IC50 refers to the midpoint of a concentration-inhibition curve.

The target in assay [1] is T1, Her2 (Homo sapiens, UniProt P04626).
T1 construct: fused on or other part: P00533 (Epidermal growth factor receptor)
The experiment in a line: HER-2 ELISA: EGF receptor-HER2 chimeric receptor assay in whole cells (HER2 kinase). The note with it: NIH3T3 cells with EGFR/HER2 chimeric receptor, phosphotyrosine ELISA. The class given is cell-based. How it is done:
Assay 1: EGF Receptor-HER2 Chimeric Receptor Assay In Whole Cells.
HER2 kinase activity in whole EGFR-NIH3T3 cells was measured as described below:
1. An NIH3T3 cell line overexpressing a chimeric receptor containing the EGFR extracellular domain and intracellular HER2 kinase domain can be used for this assay.
3. Resuspend cells in seeding medium (DMEM, 0.5% bovine serum), and count the cells using trypan blue. Viability above 90% is acceptable. Seed cells in DMEM medium (0.5% bovine serum) at a density of 10,000 cells per well, 100 μL per well, in a 96 well microtiter plate. Incubate seeded cells in 5% CO2 at 37° C. for about 40 hours.
1. Check seeded cells for contamination using an inverted microscope. Dilute drug stock (10 mg/mL in DMSO) 1:10 in DMEM medium, then transfer 5 μL to a TBST well for a final drug dilution of 1:200 and a final DMSO concentration of 1%. Control wells receive DMSO alone. Incubate in 5% CO2 at 37° C. for two hours.
2. Prepare EGF ligand: dilute stock EGF in DMEM so that upon transfer of 10 μL dilute EGF (1:12 dilution), 100 nM final concentration is attained.
4. After 120 minutes incubation with drug, add prepared […] ligand to cells, 10 μL per well, to a final concentration of 100 nM. Control wells receive DMEM alone. Incubate, shaking, at room temperature, for 5 minutes.
5. Remove drug, EGF, and DMEM. Wash cells twice with PBS. Transfer HNTG* to cells, 100 μL per well. Place on ice for 5 minutes. Meanwhile, remove blocking buffer from other ELISA plate and wash with TBST as described above.
6. With a pipette tip securely fitted to a micropipettor, scrape cells from plate and homogenize cell material by repeatedly aspirating and dispensing the HNTG* lysis buffer. Transfer lysate to a coated, blocked, and washed ELISA plate. Incubate shaking at room temperature for one hour.
7. Remove lysate and wash 4 times with TBST. Transfer freshly diluted anti-Ptyr antibody to ELISA plate at 100 μL per well. Incubate shaking at room temperature for 30 minutes in the presence of the anti-Ptyr antiserum (1:3000 dilution in TBST).
8. Remove the anti-Ptyr antibody and wash 4 times with TBST. Transfer the freshly diluted TAGO anti-rabbit IgG antibody to the ELISA plate at 100 μL per well. Incubate shaking at room temperature for 30 minutes (anti-rabbit IgG antibody: 1:3000 dilution in TBST).
9. Remove TAGO detection antibody and wash 4 times with TBST. Transfer freshly prepared ABTS/H2O2 solution to ELISA plate, 100 μL per well. Incubate shaking at room temperature for 20 minutes. (ABTS/H2O2 solution: 1.0 μL 30% H2O2 in 10 mL ABTS stock).
10. Stop reaction by adding 50 μL 5N H2SO4 (optional), and determine O.D. at 410 nm.
11. The maximal phosphotyrosine signal is determined by subtracting the value of the negative controls from the positive controls. The percent inhibition of phosphotyrosine content for extract-containing wells is then calculated, after subtraction of the negative controls.

Assay [2] has as its target T2, PDGFR (Homo sapiens, UniProt P09619). Kind of assay: Biochemical PDGFR assay (ELISA). On the set-up: expressed in transfected cells; host or cells: NIH 3T3. The procedure:
This assay measures the in vitro kinase activity of PDGFR using ELISA.
6. PDGFR-β expressing NlH 3T3 cell lysate.
1. Coat Corning 96 well ELISA plates with 0.5 μg 28D4C10 in 100 μL PBS per well, store overnight at 4° C.
5. Dilute lysate in HNTG (10 μg lysate/100 μL HNTG)
(§1) 6. Add 100 μL of diluted lysate to each well. Shake at room temperature for 60 min.
8. Add 80 μL working kinase buffer mix to ELISA plate containing captured PDGFR.
9. Dilute test compound 1:10 in TBS in 96-well polypropylene plates (i.e., 10 μL compound+90 μL TBS).
10. Add 10 μL diluted test compound to ELISA plate.
11. Incubate for 30 minutes while shaking at room temperature.
12. Add 10 μL ATP directly to all wells except negative control well (final well volume should be approximately 100 μL with 20 μM ATP in each well.) Incubate 30 minutes while shaking.
13. After 30 minutes, stop reaction by adding 10 μL of 200 mM EDTA (pH 8.0) to each well.
(§2) 15. Add 100 μL anti-phosphotyrosine (1:3000 dilution in TBST) per well. Incubate 30-45 min. at room temperature, with shaking.
(§3) 17. Add 100 μL Biosource Goat anti-rabbit IgG peroxidase conjugate (1:2000 dilution in TBST) to each well. Incubate 30 min. at room temperature, with shaking.
(§4) 19. Add 100 μL of ABTS/H2O2 solution to each well.
22. Read assay on Dynatech MR7000 ELISA reader: test filter: 410 nM, reference filter: 630 nM.
Background: An ELISA detects its analyte on a solid surface through an enzyme-linked reagent.

For assay [3], the target named is T3, EGFR (Homo sapiens, UniProt P00533). The experiment in a line: Biochemical EGFR assay (ELISA). Details: A431 cell lysate; endogenous in cells; host or cells: A431. The procedure: This assay measures the in vitro kinase activity of EGFR using ELISA.
1. Coat Coming 96 well ELISA plates with 0.5 μg SUMOl in 100 μL PBS per well, store overnight at 4° C.
5. Dilute lysate in PBS (7 μg lysate/100 μL PBS).
as §1
8. Add 120 μL TBS to ELISA plate containing captured EGFR.
9. Dilute test compound 1:10 in TBS in 96-well polypropylene plates (ie. 10 μL compound+90 μL TBS).
10. Add 13.5 μL diluted test compound to ELISA plate.
13. After 5 minutes, stop reaction by adding 16.5 μL of 200 mM EDTA (pH 8.0) to each well, shaking continuously. After the EDTA has been added, shake for 1 mm.
as §2, §3, §4
22. Read assay on Dynatech MR7000 ELISA reader. Test Filter: 410 nM Reference Filter: 630 Nm.

The target of assay [4] is T1, Her2. The experiment in a line: EGF-induced Her2-driven BrdU incorporation. It is filed as cell-based. The note with it: Table 6; 3T3 cells with EGF-R/Her2 chimeric receptor, EGF 2 nM; read-out: Her2-Driven BrdU Incorp. IC50. The procedure: (§5) The cellular/biologic assays described herein measure the amount of DNA made in response to activation of a test kinase, which is a general measure of a proliferative response. The general procedure for this assay is as follows: a compound is introduced to cells expressing the test kinase, either naturally or recombinantly, for some period of time after which, if the test kinase is a receptor, a ligand known to activate the receptor is added. After incubation at least overnight, a DNA labeling reagent such as Bromodeoxy-uridine (BrdU) or 3H-thymidine is added. The amount of labeled DNA is detected with either an anti-BrdU antibody or by measuring radioactivity and is compared to control cells not contacted with a test compound.
EGF-Induced Her2-Driven BrdU Incorporation
(8) 3T3 cell line engineered to express a chimeric receptor having the extra-cellular domain of EGF-R and the intra-cellular domain of Her2.
(1) Cells are seeded at 8000 cells/well in DMEM, 10% CS, 2 mM Gln in a 96-well plate. Cells are incubated overnight at 37° C. in 5% CO2.
(§6) (2) After 24 hours, the cells are washed with PBS, and then are serum starved in serum free medium (0% CS DMEM with 0.1% BSA) for 24 hours.
(3) On day 3, ligand (EGF=2 nM, prepared in DMEM with 0.1% BSA) and test compounds are added to the cells simultaneously. The negative control wells receive serum free DMEM with 0.1% BSA only; the positive control cells receive the ligand (EGF) but no test compound. Test compounds are prepared in serum free DMEM with ligand in a 96 well plate, and serially diluted for 7 test concentrations.
(4) After 20 hours of ligand activation, diluted BrdU labeling reagent (1:100 in DMEM, 0.1% BSA) is added and the cells are incubated with BrdU (final concentration=[…]) for 1.5 hours.
(§7) (10) The absorbance of the samples are measured at 410 nm (in “dual wavelength” mode with a filter reading at 490 nm, as a reference wavelength) on a Dynatech ELISA plate reader.
On the technique in general: Uptake of a labelled nucleoside into DNA is a usual measure of proliferation.

Assay [5] has as its target T3, EGFR. Kind of assay: EGF-induced BrdU incorporation assay. It is filed as cell-based. Details: expressed in transfected cells; host or cells: 3T3. The note with it: Table 6; 3T3 cells expressing human EGF-R, EGF 2 nM; read-out: EGF-Driven BrdU Incorp. IC50. How it is done:
as §5
EGF-Induced BrdU Incorporation Assay
(8) 3T3 cell line genetically engineered to express human EGF-R.
(1) Cells are seeded at 8000 cells/well in 10% CS, 2 mM Gin in DMEM, in a 96 well plate. Cells are incubated overnight at 37° C. in 5% CO2.
as §6
(3) On day 3, ligand (EGF, 2 nM, prepared in DMEM with 0.1%/BSA) and test compounds are added to the cells simultaneously. The negative control wells receive serum free DMEM with 0.1% BSA only; the positive control cells receive the ligand (EGF) but no test compound. Test compounds are prepared in serum free DMEM with ligand in a 96 well plate, and serially diluted for 7 test concentrations.
(§8) (4) After 20 hours of ligand activation, diluted BrdU labeling reagent (1: 100 in DMEM, 0.1% BSA) is added and the cells are incubated with BrdU (final concentration=10 μM) for 1.5 hours.
as §7

The target in assay [6] is T2, PDGFR. Kind of assay: PDGF-induced BrdU incorporation assay. It is filed as cell-based. On the set-up: expressed in transfected cells; host or cells: 3T3. The note with it: Table 6; 3T3 cells expressing human PDGF-R, PDGF 3.8 nM; read-out: PDGF-Driven BrdU Incorp. IC50. The procedure:
as §5
PDGF-Induced BrdU Incorporation Assay
(8) 3T3 cell line genetically engineered to express human PDGF-R.
(1) Cells are seeded at 8000 cells/well in DMEM, 10% CS, 2 mM Gln in a 96 well plate. Cells are incubated overnight at 37° C. in 5% CO2.
as §6
(3) On day 3, ligand (PDGF, 3.8 nM, prepared in DMEM with 0.1% BSA) and test compounds are added to the cells simultaneously. The negative control wells receive serum free DMEM with 0.1% BSA only; the positive control cells receive the ligand (PDGF) but no test compound. Test compounds are prepared in serum free DMEM with ligand in a 96 well plate, and serially diluted for 7 test concentrations.
as §8, §7

The next assay deals with SKOV3. The experiment in a line: SKOV3 growth. It is filed as cell-based. The note with it: Homo sapiens, SK-OV-3; Table 7; SKOV3 cells.
A further assay has as its system A431. The experiment in a line: A431 growth. Particulars: Homo sapiens, A-431; Table 7; A431 cells. The class given is cell-based.
Setting [7] is: Table 7, in vitro kinase activity, read-out: EGFr biochem IC50.

T1 sequence (P04626 676-1255 limits assumed): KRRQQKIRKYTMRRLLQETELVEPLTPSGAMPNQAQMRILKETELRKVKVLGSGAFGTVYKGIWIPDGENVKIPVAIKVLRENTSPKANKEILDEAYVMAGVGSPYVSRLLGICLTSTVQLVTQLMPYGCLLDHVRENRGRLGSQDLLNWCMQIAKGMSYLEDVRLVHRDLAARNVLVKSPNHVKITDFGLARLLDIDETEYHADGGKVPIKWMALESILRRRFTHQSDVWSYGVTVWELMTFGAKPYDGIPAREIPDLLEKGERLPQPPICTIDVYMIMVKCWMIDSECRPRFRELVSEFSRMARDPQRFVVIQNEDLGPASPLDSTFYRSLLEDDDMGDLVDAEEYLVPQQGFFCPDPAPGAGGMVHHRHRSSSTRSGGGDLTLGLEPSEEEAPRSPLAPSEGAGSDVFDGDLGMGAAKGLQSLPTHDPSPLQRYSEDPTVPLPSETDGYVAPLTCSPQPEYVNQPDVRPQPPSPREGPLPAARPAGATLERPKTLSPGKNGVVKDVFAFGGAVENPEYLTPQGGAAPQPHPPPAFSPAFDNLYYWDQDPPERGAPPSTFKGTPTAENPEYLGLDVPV
T2 sequence (P09619 33-1106): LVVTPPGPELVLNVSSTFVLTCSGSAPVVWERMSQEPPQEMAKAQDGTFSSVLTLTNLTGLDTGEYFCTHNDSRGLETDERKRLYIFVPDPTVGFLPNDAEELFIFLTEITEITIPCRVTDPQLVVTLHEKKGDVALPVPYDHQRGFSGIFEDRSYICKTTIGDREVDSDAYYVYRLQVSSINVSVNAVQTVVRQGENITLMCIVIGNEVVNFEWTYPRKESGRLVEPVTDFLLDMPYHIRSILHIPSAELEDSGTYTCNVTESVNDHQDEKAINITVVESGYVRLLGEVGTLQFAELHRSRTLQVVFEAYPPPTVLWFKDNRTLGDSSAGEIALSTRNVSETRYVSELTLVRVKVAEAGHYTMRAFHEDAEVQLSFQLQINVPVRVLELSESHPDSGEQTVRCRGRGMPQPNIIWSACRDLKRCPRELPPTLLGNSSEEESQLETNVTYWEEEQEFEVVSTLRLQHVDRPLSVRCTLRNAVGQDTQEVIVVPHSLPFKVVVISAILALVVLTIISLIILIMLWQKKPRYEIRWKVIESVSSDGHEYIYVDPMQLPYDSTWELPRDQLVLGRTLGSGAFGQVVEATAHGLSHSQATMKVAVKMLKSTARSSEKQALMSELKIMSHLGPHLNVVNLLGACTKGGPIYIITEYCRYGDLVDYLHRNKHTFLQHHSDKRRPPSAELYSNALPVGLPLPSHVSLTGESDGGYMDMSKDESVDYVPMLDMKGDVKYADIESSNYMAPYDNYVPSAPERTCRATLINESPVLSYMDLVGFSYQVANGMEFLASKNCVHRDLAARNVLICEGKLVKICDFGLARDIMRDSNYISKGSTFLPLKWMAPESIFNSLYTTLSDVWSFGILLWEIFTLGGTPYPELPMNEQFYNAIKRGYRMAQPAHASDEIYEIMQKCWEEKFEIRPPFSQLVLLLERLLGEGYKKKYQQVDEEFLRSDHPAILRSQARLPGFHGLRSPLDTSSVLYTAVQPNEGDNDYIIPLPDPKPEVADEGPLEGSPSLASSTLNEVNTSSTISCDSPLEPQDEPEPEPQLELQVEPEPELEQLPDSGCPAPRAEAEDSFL
T3 sequence (P00533 25-1210): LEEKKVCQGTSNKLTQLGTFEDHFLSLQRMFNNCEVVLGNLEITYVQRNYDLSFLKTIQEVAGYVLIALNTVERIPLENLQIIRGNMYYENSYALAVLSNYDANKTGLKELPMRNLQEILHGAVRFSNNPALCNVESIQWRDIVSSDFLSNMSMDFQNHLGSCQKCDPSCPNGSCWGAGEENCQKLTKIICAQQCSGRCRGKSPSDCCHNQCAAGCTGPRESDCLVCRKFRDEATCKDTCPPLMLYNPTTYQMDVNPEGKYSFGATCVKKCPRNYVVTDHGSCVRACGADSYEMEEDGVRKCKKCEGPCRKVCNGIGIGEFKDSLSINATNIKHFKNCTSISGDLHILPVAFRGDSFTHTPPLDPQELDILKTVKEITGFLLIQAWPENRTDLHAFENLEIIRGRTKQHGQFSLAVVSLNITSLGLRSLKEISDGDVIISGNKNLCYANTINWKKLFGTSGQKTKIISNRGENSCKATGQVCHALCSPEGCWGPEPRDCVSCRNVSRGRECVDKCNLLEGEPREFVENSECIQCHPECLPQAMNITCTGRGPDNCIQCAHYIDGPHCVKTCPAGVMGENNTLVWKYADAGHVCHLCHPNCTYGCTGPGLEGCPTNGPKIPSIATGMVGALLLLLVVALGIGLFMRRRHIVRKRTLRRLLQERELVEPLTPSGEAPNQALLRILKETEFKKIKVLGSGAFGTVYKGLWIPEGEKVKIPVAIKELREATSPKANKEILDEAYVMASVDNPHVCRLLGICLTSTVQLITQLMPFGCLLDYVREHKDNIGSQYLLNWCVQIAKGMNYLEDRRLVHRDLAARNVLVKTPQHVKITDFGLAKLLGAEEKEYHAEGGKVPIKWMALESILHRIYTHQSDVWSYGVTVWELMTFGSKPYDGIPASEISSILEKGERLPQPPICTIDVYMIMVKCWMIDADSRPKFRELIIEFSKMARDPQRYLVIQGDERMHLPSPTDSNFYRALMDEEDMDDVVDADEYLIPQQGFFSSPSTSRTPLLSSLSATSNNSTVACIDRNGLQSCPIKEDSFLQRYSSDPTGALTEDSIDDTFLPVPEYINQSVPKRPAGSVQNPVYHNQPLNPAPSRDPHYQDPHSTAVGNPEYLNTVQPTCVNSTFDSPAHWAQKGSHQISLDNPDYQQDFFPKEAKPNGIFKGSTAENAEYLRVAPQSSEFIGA

As to `Cc1[nH]c(C=C2C(=O)Nc3cc(-c4cccs4)ccc32)c(C)c1CCCN(C)C` [AHI-8, 3-[4-(3-Dimethylaminopropyl)-3,5-dimethyl-1H-pyrrol-2-ylmethylene]-6-thiophen-2-yl-1,3-dihydroindol-2-one], the IC50 was 71 µM against Her2 [1] (Table 4); 0.52 µM on PDGFR [2] (Table 4, in vitro kinase activity, read-out: bio PDGFr IC50); greater than 100 µM on EGFR [3] (Table 4, in vitro kinase activity, read-out: bio EGFr IC50).

As for `COc1ccc(/C(=C2/C(=O)Nc3ccccc32)c2[nH]c(C)cc2C)cc1` [DAI-I, 3-[(3,5-Dimethyl-1H-pyrrol-2-yl)-(4-methoxy-phenyl)-methylene]-1,3-dihydro-indol-2-one], the IC50 on Her2 [4] was 46.9 µM; on EGFR [5], greater than 50 µM; at PDGFR [6] it was 0.77 µM.

For the compound `COc1ccc(/C(=C2/C(=O)Nc3ccccc32)c2[nH]c(C)cc2C)cc1OC` [DAI-II, 3-[(3,4-dimethoxy-phenyl)-(3,5-dimethyl-1H-pyrrol-2-yl)-methylene]-1,3-dihydro-indol-2-one], the IC50 is 30.2 µM on Her2 [4], 38.3 µM at EGFR [5] and 0.26 µM on PDGFR [6].

Regarding `O=C1Cc2c(CCOC(=S)Nc3ccccc3)cccc2N1` [IN-010, Phenyl-thiocarbamic acid O-[2-(2-oxo-2,3-dihydro-1H-indol-4-yl)-ethyl]ester], the 50% inhibitory concentration (IC50) against Her2 [1] (Table 7) is greater than 100 µM; with SKOV3, greater than 25 µM; in the assay on A431, greater than 25 µM; at EGFR [3] (setting [7]) it was greater than 100 µM.

For the compound `O=C1Cc2c(CCOC(=O)Nc3ccccc3)cccc2N1` [IN-011, Phenyl-carbamic acid 2-(2-oxo-2,3-dihydro-1H-indol-4-yl)-ethyl ester], the IC50 on Her2 [1] (Table 7) was greater than 100 µM; with SKOV3 it was greater than 50 µM; in the assay on A431, greater than 50 µM; at EGFR [3] (setting [7]), greater than 100 µM.

`CC(C)(C)NC(=O)OCCc1cccc2c1CC(=O)N2` [IN-012, tert-Butyl-carbamic acid 2-(2-oxo-2,3-dihydro-1H-indol-4-yl)-ethyl ester]: the IC50 at Her2 [1] (Table 7) is greater than 100 µM; in the assay with SKOV3, greater than 50 µM; in the assay with A431 it was greater than 50 µM; on EGFR [3] (setting [7]), greater than 100 µM.

On to `COc1ccc(OCCc2cccc3c2CC(=O)N3)cc1` [IN-017, 4-[2-(4-Methoxy-phenoxy)-ethyl]-1,3-dihydro-indol-2-one], for which the IC50 is greater than 100 µM at Her2 [1] (Table 7), greater than 50 µM in the assay on SKOV3 and greater than 100 µM at EGFR [3] (setting [7]).

For the compound `CC(C)NC(=O)OCCc1cccc2c1CC(=O)N2` [IN-025, Isopropyl-carbamic acid 2-(2-oxo-2,3-dihydro-1H-indol-4-yl)-ethyl ester], the IC50 is 3.9 µM against Her2 [1] (Table 7); 70.8 µM on PDGFR [2] (Table 7, in vitro kinase activity, read-out: PDGFr biochem IC50); greater than 100 µM on EGFR [3] (setting [7]).
